{"source": "patent EP4711366A1", "about": "“PYRIMIDO MACROHETEROCYCLIC COMPOUND AS WEE1-YES DUAL-TARGET INHIBITOR AND USE THEREOF” (Mindrank AI Ltd., priority 2023, dated 2024)", "key": {"Wee1 kinase": {"target": "Wee1 kinase (Homo sapiens, UniProt P30291)", "sequence (P30291 whole entry)": "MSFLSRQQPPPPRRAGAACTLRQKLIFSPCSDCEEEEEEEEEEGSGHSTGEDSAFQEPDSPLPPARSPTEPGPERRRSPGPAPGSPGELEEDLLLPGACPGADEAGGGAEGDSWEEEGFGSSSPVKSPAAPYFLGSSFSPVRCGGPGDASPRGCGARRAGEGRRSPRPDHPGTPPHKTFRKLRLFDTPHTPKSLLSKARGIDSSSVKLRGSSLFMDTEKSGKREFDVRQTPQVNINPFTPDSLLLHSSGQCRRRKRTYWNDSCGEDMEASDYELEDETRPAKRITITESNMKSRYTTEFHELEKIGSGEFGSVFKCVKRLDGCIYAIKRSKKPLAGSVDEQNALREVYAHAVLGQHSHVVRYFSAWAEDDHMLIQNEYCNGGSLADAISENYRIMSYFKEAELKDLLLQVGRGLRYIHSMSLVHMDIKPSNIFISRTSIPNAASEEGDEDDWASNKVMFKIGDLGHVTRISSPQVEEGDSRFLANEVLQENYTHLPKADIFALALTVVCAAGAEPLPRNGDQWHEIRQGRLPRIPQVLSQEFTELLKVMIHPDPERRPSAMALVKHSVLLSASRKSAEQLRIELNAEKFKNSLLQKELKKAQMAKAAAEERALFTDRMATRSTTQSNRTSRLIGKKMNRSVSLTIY", "experiment": "WEE1 protein kinase inhibitory activity assay (ADP-GLO luminescence)", "type": "biochemical", "details": "for IC50: Wee1 10 ng/well, ATP 10 µM, 3 h, 37 °C", "in_short": "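Compound (10-point, 4-fold series) preincubated with Wee1 enzyme 15 min at room temperature before ATP addition; kinase reaction 3 h at 37 °C. ADP formed quantified by ADP-Glo luminescence; inhibition calculated against vehicle and blank wells, duplicates averaged, IC50 from curve fit.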"}, "[1]": {"system": "Human ovarian cancer OVCAR-3 cells", "experiment": "In vivo efficacy study against OVCAR-3 tumors (subcutaneous tumor-bearing model)", "set-up": "species or system BALB/c nude mice", "details": "for Relative tumor inhibition (%) Day 28 / Relative tumor volume Day 28: PO", "description": "(§1) Human ovarian cancer OVCAR-3 cells were subcultured and expanded in an RPMI-1640 culture medium containing 20% FBS and 0.01 mg/mL bovine insulin. BALB/c nude mice aged 6-8 weeks were taken and each subcutaneously injected with 5 × 10^6 cells to establish a tumor-bearing model. The tumor volume was monitored, and when the tumor volume reached about 150 mm^3, the animals were randomized into 5 groups according to body weight and tumor volume. The animals were given, by oral gavage, the vehicle or compounds to be tested (ZN-c3 and IE) once daily for a total of 28 days. During the period of administration, the tumor volume and the animal body weight were measured twice a week, and the animals' states were observed daily. At the endpoint, the animals were euthanized with carbon dioxide, and the subcutaneous tumors were isolated and weighed.\n(§2) The data calculation formulae are shown below: The tumor volume (TV) was calculated using the formula 1/2×axb^2, where a and b represent the length and width measurements of the tumor, respectively.\n(§3) The tumor growth inhibition rate (%TGITV) was calculated using the formula (1 - TVT/TVC) × 100%, where TVc represents the average tumor volume of the negative control group, and TVT represents the average tumor volume of the treatment group.\n(§4) The relative tumor volume (RTV) was calculated using the formula Vt/V0, where V0 represents the tumor volume at the time of grouping, and Vt represents the tumor volume at each measurement."}, "[2]": {"system": "Human colon cancer LoVo cells", "experiment": "In vivo efficacy study against LoVo tumors (subcutaneous tumor-bearing model)", "set-up": "species or system BALB/c nude mice", "details": "for Relative tumor inhibition (%) Day 28 / Relative tumor volume Day 28: PO", "description": "as §1, with “Human colon” for “Human ovarian”, “cancer LoVo” for “cancer OVCAR-3”, “an F12K” for “an RPMI-1640”, “containing 10% FBS.” for “containing 20% FBS and 0.01 mg/mL bovine insulin.”, “with 2” for “with 5”\nas §2\nThe tumor growth inhibition rate (%TGITV) was calculated using the formula (1 - TVT/TVC) × 100%, where TVC represents the average tumor volume of the negative control group, and TVT represents the average tumor volume of the treatment group.\nas §4"}, "[3]": {"system": "SW620 human colon cancer cells", "experiment": "In vivo efficacy study against SW620 tumors (subcutaneous tumor-bearing model)", "set-up": "species or system BALB/c nude mice", "details": "for Relative tumor inhibition rate (%) Day 21 / Relative tumor volume Day 21: PO, QD×21", "description": "SW620 human colon cancer cells were subcultured and expanded in an L-15 culture medium containing 10% FBS. BALB/c nude mice aged 6-8 weeks were taken and each subcutaneously injected with 1 × 10^6 cells to establish a tumor-bearing model. The tumor volume was monitored, and when the tumor volume reached about 150 mm^3, the animals were randomized into 5 groups according to body weight and tumor volume. The animals were given, by oral gavage, the vehicle or compounds to be tested (ZN-c3 and compound IE) once daily for a total of 21 days. During the period of administration, the tumor volume and the animal body weight were measured twice a week, and the animals' states were observed daily. At the endpoint, the animals were euthanized with carbon dioxide, and the subcutaneous tumors were isolated and weighed.\nas §2, §3, §4"}}, "data": [{"smiles": "Cc1cc(Nc2ncc3c(=O)n4n(c3n2)-c2cccc(n2)[C@](C)(O)CCC=CC4)ccc1OC1CCN(C)CC1", "note": "(stereo in doubt) [Compound IE, (R,Z)-12-hydroxy-12-methyl-2-((3-methyl-4-((1-methylpiperidin-4-yl)oxy)phenyl)amino)-7,10,11,12-tetrahydro-5H-13,17-(azeno)pyrimido[4',5':3,4]pyrazolo[1,2-a] [1,2]diazacyclotridecin-5-one]", "values": [{"measurement": "IC50", "setting": "Wee1 kinase", "result": 7.8, "unit": "nM"}, {"measurement": "inhibition of the Weel target (in words)", "setting": "Wee1 kinase; summary statement on the assay results", "result": "strongly inhibited"}, {"measurement": "Relative tumor inhibition (%) Day 28", "setting": "[1]; 20 mg/kg, QD × 28", "result": 40.51, "unit": "%"}, {"measurement": "Relative tumor volume Day 28", "setting": "[1]; 20 mg/kg, QD × 28", "result": 3.16}, {"measurement": "Relative tumor inhibition (%) Day 28", "setting": "[1]; 40 mg/kg, QD × 28", "result": 81.11, "unit": "%"}, {"measurement": "Relative tumor volume Day 28", "setting": "[1]; 40 mg/kg, QD × 28", "result": 0.94}, {"measurement": "Relative tumor inhibition (%) Day 28", "setting": "[1]; 80/60 mg/kg, QD × 28", "result": 92.69, "unit": "%"}, {"measurement": "Relative tumor volume Day 28", "setting": "[1]; 80/60 mg/kg, QD × 28", "result": 0.38}, {"measurement": "activity in inhibiting tumor growth in the OVCAR-3 tumor model compared with ZN-c3", "setting": "[1]; comparison in words", "result": "significantly better activity than ZN-c3"}, {"measurement": "Relative tumor inhibition (%) Day 28", "setting": "[2]; 20 mg/kg, QD × 28", "result": 60.90, "unit": "%"}, {"measurement": "Relative tumor volume Day 28", "setting": "[2]; 20 mg/kg, QD × 28", "result": 2.28}, {"measurement": "Relative tumor inhibition (%) Day 28", "setting": "[2]; 40 mg/kg, QD × 28", "result": 89.12, "unit": "%"}, {"measurement": "Relative tumor volume Day 28", "setting": "[2]; 40 mg/kg, QD × 28", "result": 0.63}, {"measurement": "Relative tumor inhibition (%) Day 28", "setting": "[2]; 80mg/kg, QD×28", "result": 97.12, "unit": "%"}, {"measurement": "Relative tumor volume Day 28", "setting": "[2]; 80mg/kg, QD×28", "result": 0.17}, {"measurement": "activity in inhibiting tumor growth in the LoVo tumor model compared with ZN-c3", "setting": "[2]; comparison in words", "result": "significantly better activity than ZN-c3"}, {"measurement": "Relative tumor inhibition rate (%) Day 21", "setting": "[3]; 30mg/kg", "result": 38.18, "unit": "%"}, {"measurement": "Relative tumor volume Day 21", "setting": "[3]; 30mg/kg", "result": 7.31}, {"measurement": "Relative tumor inhibition rate (%) Day 21", "setting": "[3]; 80mg/kg", "result": 78.38, "unit": "%"}, {"measurement": "Relative tumor volume Day 21", "setting": "[3]; 80mg/kg", "result": 2.57}, {"measurement": "activity in inhibiting tumor growth in the SW620 tumor model compared with ZN-c3", "setting": "[3]; comparison in words", "result": "higher activity than the reference molecule ZN-c3"}]}, {"smiles": "C=CCn1c(=O)c2cnc(Nc3ccc(N4CCN(C)CC4)cc3)nc2n1-c1ccc2c(n1)C(O)(CC)CC2", "note": "(stereo not drawn) [ZN-c3, reference compound]", "values": [{"measurement": "IC50", "setting": "Wee1 kinase", "result": 5.6, "unit": "nM"}, {"measurement": "Relative tumor inhibition (%) Day 28", "setting": "[1]; 100mg/kg, QD×28", "result": 61.10, "unit": "%"}, {"measurement": "Relative tumor volume Day 28", "setting": "[1]; 100mg/kg, QD×28", "result": 2.01}, {"measurement": "Relative tumor inhibition (%) Day 28", "setting": "[2]; 80mg/kg, QD×28", "result": 57.98, "unit": "%"}, {"measurement": "Relative tumor volume Day 28", "setting": "[2]; 80mg/kg, QD×28", "result": 2.41}, {"measurement": "Relative tumor inhibition rate (%) Day 21", "setting": "[3]; 30mg/kg", "result": 28.24, "unit": "%"}, {"measurement": "Relative tumor volume Day 21", "setting": "[3]; 30mg/kg", "result": 8.57}, {"measurement": "Relative tumor inhibition rate (%) Day 21", "setting": "[3]; 80mg/kg", "result": 36.78, "unit": "%"}, {"measurement": "Relative tumor volume Day 21", "setting": "[3]; 80mg/kg", "result": 7.94}]}]}
